Measurements published in ChEMBL document CHEMBL1201862, “PubChem BioAssay data set” (2004).
Activity calls are given as the source filed them.

Legend:
[1] = Luminescence Cell-Based Dose Retest to Confirm Inhibitors of Cancer Stem Cells. [Related pubchem assays (depositor defined):AID2717, AID2721]; assay type: functional; conditions: Homo sapiens
[2] = Luminescence Cell-Based Dose Confirmation HTS to Identify Activators of 5'UTR Stem-Loop Driven Alpha-Synuclein mRNA Translation in H4 Neuroglioblastoma Cells. [Related pubchem assays: 1829 (Project Summary), 1814 (Primary HTS)]; assay type: functional
H4 = experiment: Luminescence Cell-Based Dose Response HTS to Identify Activators of 5'UTR Stem-Loop Driven Prion Protein mRNA Translation in H4 Neuroglioblastoma Cells. [Related pubchem assays: 1829 (Project Summary), 1814 (Primary HTS)]; assay type: functional; conditions: Homo sapiens
[3] = Luminescence Cell-Based Dose Response HTS to Identify Activators of Luciferase Translation or Activity in H4 […] Cells. [Related pubchem assays: 1829 (Project Summary), 1814 (Primary HTS)]; assay type: functional
Streptokinase A = target: T1, Streptokinase A (Streptococcus pyogenes serotype M1, UniProt P10520); experiment: viability-normalized secreted streptokinase activity reduction – plasminogen activation absorbance, OD405, dose response (AID 1914); assay type: functional, Streptococcus pyogenes M1 GAS;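 further: secreted streptokinase activity via plasminogen activation per viability signal from cell pellet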
T1 sequence (P10520 whole entry): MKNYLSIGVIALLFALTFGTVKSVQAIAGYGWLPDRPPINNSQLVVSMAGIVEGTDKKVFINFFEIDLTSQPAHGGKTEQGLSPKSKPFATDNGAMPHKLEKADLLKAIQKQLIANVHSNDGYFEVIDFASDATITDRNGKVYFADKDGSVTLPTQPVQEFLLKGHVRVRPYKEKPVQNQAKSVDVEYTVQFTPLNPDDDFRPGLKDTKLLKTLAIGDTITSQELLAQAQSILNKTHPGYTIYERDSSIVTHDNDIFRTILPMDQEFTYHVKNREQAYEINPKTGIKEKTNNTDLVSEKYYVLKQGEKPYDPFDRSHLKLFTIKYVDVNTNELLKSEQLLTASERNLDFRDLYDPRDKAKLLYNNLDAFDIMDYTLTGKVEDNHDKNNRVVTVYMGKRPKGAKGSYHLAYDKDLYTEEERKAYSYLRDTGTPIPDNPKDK

Cytochrome P450 2D6 = Cytochrome P450 2D6 (Homo sapiens, UniProt P10635);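 further: CYP2D6 member of a cytochrome P450 panel assay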
Cytochrome P450 2D6, sequence (P10635 whole entry): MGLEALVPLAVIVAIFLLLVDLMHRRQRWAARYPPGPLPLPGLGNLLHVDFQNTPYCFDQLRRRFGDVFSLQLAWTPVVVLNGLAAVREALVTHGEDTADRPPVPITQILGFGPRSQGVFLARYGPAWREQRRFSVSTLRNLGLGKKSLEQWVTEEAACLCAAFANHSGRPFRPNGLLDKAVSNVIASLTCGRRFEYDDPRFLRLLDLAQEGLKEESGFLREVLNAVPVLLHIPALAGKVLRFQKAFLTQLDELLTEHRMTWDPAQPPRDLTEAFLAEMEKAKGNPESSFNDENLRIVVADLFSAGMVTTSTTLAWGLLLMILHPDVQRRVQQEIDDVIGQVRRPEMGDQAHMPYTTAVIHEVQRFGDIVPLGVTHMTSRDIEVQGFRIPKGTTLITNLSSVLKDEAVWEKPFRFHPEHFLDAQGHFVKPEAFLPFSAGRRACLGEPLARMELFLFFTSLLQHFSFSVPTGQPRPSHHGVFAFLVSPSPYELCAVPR

Cytochrome P450 2C9 = Cytochrome P450 2C9 (Homo sapiens, UniProt P11712)
Cytochrome P450 2C9, sequence (P11712 whole entry): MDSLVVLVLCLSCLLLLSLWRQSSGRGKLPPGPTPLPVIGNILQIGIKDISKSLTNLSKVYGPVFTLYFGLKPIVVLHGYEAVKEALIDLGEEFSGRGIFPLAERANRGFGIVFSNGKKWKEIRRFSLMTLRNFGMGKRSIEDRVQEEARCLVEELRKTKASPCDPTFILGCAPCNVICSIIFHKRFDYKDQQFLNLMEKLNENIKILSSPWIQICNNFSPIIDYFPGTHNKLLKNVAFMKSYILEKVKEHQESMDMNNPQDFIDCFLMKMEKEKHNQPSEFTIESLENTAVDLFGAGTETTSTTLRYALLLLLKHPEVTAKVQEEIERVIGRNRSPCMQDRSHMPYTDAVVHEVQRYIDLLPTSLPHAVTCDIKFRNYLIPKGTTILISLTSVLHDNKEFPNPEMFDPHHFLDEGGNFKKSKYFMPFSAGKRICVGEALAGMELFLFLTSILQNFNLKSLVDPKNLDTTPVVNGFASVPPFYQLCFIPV

Cytochrome P450 2C19 = Cytochrome P450 2C19 (Homo sapiens, UniProt P33261); experiment: Cytochrome panel assay with activity outcomes. Panel member name: p450-cyp2c19 Compounds with AC50 equal or less than 10 uM are considered active; assay type: functional; conditions: read-out: AC50
Cytochrome P450 2C19, sequence (P33261 whole entry): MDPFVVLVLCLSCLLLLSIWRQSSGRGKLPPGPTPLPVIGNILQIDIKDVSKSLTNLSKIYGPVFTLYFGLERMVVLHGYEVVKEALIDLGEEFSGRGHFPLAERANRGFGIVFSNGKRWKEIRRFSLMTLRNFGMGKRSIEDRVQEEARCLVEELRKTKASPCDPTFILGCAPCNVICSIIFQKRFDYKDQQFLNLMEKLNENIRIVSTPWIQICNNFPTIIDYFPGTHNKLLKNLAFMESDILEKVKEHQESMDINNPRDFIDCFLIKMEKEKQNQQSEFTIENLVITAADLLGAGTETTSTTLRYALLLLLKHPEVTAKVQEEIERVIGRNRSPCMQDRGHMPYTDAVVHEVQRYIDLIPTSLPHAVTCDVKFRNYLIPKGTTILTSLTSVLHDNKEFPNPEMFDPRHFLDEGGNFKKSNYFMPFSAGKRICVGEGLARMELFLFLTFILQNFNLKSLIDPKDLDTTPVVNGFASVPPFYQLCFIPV

[4] = target: T2, Heat shock factor protein 1 (Mus musculus, UniProt P38532); experiment: enhancement of HSF1-driven luciferase signal – cell-based, NIH3T3, luminescence, dose retest, confirmation (AID 435004); assay type: functional;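 further: stress induced by proteasome inhibitor MG132 added 30 min after compound; luciferase reporter driven by HSF1 response element in NIH3T3 cells; actives raise luminescence as potentiators of the MG132 stress response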
T2 sequence (P38532 whole entry): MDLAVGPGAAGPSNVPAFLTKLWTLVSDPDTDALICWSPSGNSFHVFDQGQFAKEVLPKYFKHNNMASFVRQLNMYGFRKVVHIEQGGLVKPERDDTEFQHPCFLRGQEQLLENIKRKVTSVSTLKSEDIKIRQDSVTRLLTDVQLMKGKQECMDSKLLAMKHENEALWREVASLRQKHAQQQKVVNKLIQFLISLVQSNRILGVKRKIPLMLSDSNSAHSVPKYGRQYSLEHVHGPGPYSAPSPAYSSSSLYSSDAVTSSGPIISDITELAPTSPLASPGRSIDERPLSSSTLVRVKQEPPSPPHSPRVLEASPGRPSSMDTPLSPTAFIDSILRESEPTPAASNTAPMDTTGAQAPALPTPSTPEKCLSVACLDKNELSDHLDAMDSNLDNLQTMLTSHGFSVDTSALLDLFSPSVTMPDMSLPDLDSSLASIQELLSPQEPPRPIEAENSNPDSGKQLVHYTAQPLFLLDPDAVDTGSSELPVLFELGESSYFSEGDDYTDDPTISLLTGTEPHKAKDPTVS

Streptococcus = experiment: GAS UMAA2166 growth inhibition – luminescence, BacTiterGlo, counter-screen for streptokinase expression inhibitor project, dose response (AID 1915); assay type: functional, organism-based;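 further: potency for reduction of bacterial viability or growth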
[5] = test system: Streptococcus sp. 'group A'; experiment: Streptococcus pyogenes SK(-)GAS viability under kanamycin – luminescence, BacTiterGlo, confirmation, counter-screen for streptokinase expression inhibitor project, dose response (AID 1900); assay type: functional, organism-based
Cytochrome P450 3A4 = Cytochrome P450 3A4 (Homo sapiens, UniProt P08684);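 further: CYP3A4 tested as one member of a cytochrome P450 panel screen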
Cytochrome P450 3A4, sequence (P08684 whole entry): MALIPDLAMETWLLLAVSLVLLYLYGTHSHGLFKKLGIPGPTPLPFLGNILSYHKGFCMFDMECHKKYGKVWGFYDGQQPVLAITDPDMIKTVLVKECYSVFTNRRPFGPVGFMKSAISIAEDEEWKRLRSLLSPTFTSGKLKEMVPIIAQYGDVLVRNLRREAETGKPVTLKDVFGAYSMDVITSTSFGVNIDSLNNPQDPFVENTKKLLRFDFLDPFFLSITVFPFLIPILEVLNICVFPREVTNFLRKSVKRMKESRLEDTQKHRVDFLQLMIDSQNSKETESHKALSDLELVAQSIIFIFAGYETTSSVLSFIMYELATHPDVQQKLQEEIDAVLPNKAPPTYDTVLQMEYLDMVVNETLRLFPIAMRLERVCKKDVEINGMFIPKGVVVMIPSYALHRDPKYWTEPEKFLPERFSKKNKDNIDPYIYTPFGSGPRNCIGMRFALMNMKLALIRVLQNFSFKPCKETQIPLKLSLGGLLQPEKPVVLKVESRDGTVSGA

[6] = target: T2, Heat shock factor protein 1; experiment: decrease of HSF1-responsive luciferase luminescence – cell-based, NIH3T3, dose retest, confirmation (AID 2382); assay type: functional;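 further: NIH3T3 fibroblasts with HSF1-driven luciferase reporter stressed by proteasome inhibitor MG132; luminescence from HSF1-driven luciferase expression after 8 hours of MG132 stress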
[7] = Trypanosoma cruzi growth suppression in host cells – NIH3T3 host cells, beta-gal luminescence, confirmation (AID 2044); assay type: functional, cell-based;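 further: intracellular parasites grown in NIH/3T3 mouse fibroblasts as host cells; luminescent beta-galactosidase reporter signal from transgenic T. cruzi replicating inside host cells; inhibitors lower the luminescence signal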
[8] = NIH3T3 cell viability loss – ATP luminescence, mouse fibroblasts, counter-screen, dose response (AID 2010); assay type: functional, cell-based;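 further: cells exposed to compound for about 90 hours before reading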
Cytochrome P450 1A2 = target: T3, Cytochrome P450 1A2 (Homo sapiens, UniProt P05177);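 further: PubChem cytochrome P450 panel assay, CYP1A2 panel member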
T3 sequence (P05177 whole entry): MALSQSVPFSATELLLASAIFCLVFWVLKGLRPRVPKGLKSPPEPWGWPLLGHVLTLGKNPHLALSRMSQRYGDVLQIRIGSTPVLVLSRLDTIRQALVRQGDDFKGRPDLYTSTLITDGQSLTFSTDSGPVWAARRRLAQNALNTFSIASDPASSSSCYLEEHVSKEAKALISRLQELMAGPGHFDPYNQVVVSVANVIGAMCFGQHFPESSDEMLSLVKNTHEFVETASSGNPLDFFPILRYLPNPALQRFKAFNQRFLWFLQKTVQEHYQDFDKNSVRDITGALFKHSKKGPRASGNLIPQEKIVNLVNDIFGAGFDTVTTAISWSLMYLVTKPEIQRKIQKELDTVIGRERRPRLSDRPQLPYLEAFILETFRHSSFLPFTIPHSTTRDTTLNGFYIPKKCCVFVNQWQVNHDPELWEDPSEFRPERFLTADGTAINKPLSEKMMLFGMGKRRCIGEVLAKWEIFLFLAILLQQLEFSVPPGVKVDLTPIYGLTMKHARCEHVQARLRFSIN

[9] = viability of uninfected HEp-2 cells – cell-based, HTS, cytotoxicity control for RSV inhibitor project, dose response (AID 2410); assay type: functional; conditions: human respiratory syncytial virus

## Oc1ccc(Br)cc1-c1cc(-c2ccccc2)[nH]n1
[1]
  AC50: 4.95 µM (active)

## Cc1ccc(OC(=O)NC2CCS(=O)(=O)C2)cc1C (configuration not stated)
[2]
  EC50: > 120 µM (not active)
H4
  EC50: > 120 µM (not active)
[3]
  EC50: > 120 µM (not active)

## Cc1ccc2nc(Nc3nc(=O)cc(-c4ccccc4)[nH]3)nc(C)c2c1
Streptokinase A
  EC50: > 150 µM (not active)

## COCCn1c(=O)c(-c2ccc(OC)cc2)nc2cnc(OC)nc21
Cytochrome P450 2D6
  AC50: 25.1 µM (inconclusive)
Cytochrome P450 2C9
  AC50: 39.8 µM (inconclusive)
Cytochrome P450 2C19
  AC50: 39.8 µM (inconclusive)

## CCOc1ccc2nc(N3CCCC(C(=O)NCC4CCCO4)C3)sc2c1 (configuration not stated)
[2]
  EC50: 17.5 µM (active)
H4
  EC50: 17.2 µM (active)
[3]
  EC50: 17.1 µM (active)

## CCOC(=O)CC1C(=O)NCCN1S(=O)(=O)c1cc(Cl)c(Cl)cc1Cl (configuration not stated)
[4]
  EC50: > 260 µM (inactive)

## CCc1ccccc1NC(=O)CC(c1ccc(OC)cc1)n1cccc1 (configuration not stated)
[4]
  EC50: > 260 µM (inactive)

## Nc1nc(CSCc2ccccc2)nc(N2CCOCC2)n1
[2]
  EC50: > 120 µM (not active)
H4
  EC50: 50.7 µM (active)
[3]
  EC50: 6.28 µM (active)

## C=CCn1c(O)cc(=O)nc1SC(C)CC (configuration not stated)
Streptococcus
  EC50: > 150 µM (not active)
[5]
  EC50: 21.3 µM (active)
Streptokinase A
  EC50: > 150 µM (not active)

## COc1cc(/C=N/Nc2ncnc3sc4c(c23)CCC4)ccc1O
Streptococcus
  EC50: > 150 µM (not active)
[5]
  EC50: 3.88 µM (active)
Streptokinase A
  EC50: 5.06 µM (active)

## COc1ccccc1NC(=O)c1ccc(S(=O)(=O)N2CCCC(C)C2)cc1 (configuration not stated)
[1]
  AC50: > 195 µM (inactive)

## O=C(Nc1ccccc1)C1=C[C@@H](c2csc3ccccc23)C[C@@H](OCc2ccc(CO)cc2)O1
[1]
  AC50: 2.65 µM (active)

## O=c1c2c(-c3ccccc3)ccnc2[nH]n1-c1ccccc1
[2]
  EC50: > 120 µM (not active)
H4
  EC50: > 120 µM (not active)
[3]
  EC50: 10.8 µM (active)

## Cc1ccc2nc(Nc3nc(O)cc(-c4ccccc4)n3)nc(C)c2c1
Streptococcus
  EC50: 6.98 µM (active)
[5]
  EC50: 2.94 µM (active)

## CNC(C)C#Cc1ccc2sc3cc(OC)c(OC)cc3c(=O)c2c1 (configuration not stated)
[2]
  EC50: 22.3 µM (active)
H4
  EC50: > 120 µM (not active)
[3]
  EC50: 15.3 µM (active)

## C=CCn1c(SCC(N)=O)nnc1-c1cc2c(s1)CCC(CC)C2 (configuration not stated)
[2]
  EC50: 3 µM (active)
H4
  EC50: 5.64 µM (active)
[3]
  EC50: 27.7 µM (active)

## O=C(O)C[S+]([O-])c1ccc2c3c(cccc13)C(=O)c1ccccc1-2 (configuration not stated)
Cytochrome P450 2C9
  AC50: 6.31 µM (inconclusive)
Cytochrome P450 3A4
  AC50: 3.98 µM (inconclusive)

## O=C(Cc1csc(NC(=O)Nc2cccc(Cl)c2)n1)NCc1cccnc1
Streptococcus
  EC50: 13.7 µM (active)
[5]
  EC50: 3.19 µM (active)
Streptokinase A
  EC50: > 150 µM (not active)

## Cc1ccc(-c2[nH]ncc2C(=O)c2ccc(Br)cc2)c(O)c1
[4]
  EC50: > 260 µM (inactive)

## COc1cccc(-n2nnc3c(=O)n(Cc4ccccc4Cl)cnc32)c1
[6]
  EC50: > 195 µM (not active)
Streptococcus
  EC50: > 150 µM (not active)
[5]
  EC50: > 150 µM (not active)
Streptokinase A
  EC50: > 150 µM (not active)

## CC1CCCC(N=C(S)Nc2ccc(SC(F)F)cc2)C1C (configuration not stated)
[1]
  AC50: 5.61 µM (active)

## O=c1cnc2cnc(N3CCNCC3)nc2n1CCc1ccccc1
Cytochrome P450 2D6
  AC50: 15.8 µM (inconclusive)
Cytochrome P450 2C9
  AC50: 20 µM (inconclusive)
Cytochrome P450 3A4
  AC50: 15.8 µM (inconclusive)

## O=C(CSc1nc(N2CCOCC2)nc(N2CCOCC2)n1)Nc1cccc(C(F)(F)F)c1
Streptococcus
  EC50: > 150 µM (not active)
[5]
  EC50: > 150 µM (not active)
Streptokinase A
  EC50: > 150 µM (not active)

## Brc1ccccc1-n1nnc(-c2cnc3ccccc3c2)n1
[4]
  EC50: > 260 µM (inactive)

## CCCCCCNC(=O)CN=C(S)N(Cc1cccs1)C1CCCCC1
[4]
  EC50: > 260 µM (inactive)

## Cn1c(=O)c(/C=C/c2ccc(F)cc2)nc2ccccc21
[4]
  EC50: 36.5 µM (active)

## CCCC(C)c1nnc(NC(=O)COc2ccc3c(c2)OCO3)s1 (configuration not stated)
[1]
  AC50: 5.69 µM (active)

## Cc1nn(C)c(C(=O)Nc2ccc(S(=O)(=O)NC34CC5CC(CC(C5)C3)C4)cc2)c1Br
[7]
  EC50: 2.79 µM (active)
[8]
  EC50: > 60 µM (inconclusive)
Streptococcus
  EC50: 16.5 µM (active)
[5]
  EC50: 8.5 µM (active)
Streptokinase A
  EC50: 16.8 µM (active)

## Oc1ccc2ccccc2c1CN1CCN(c2ccccc2)CC1
[4]
  EC50: 49.8 µM (active)

## C/C(=N\NC(=O)c1nnn(-c2nonc2N)c1CN1CCCCC1)c1ccccc1O
[1]
  AC50: 3.42 µM (active)

## CC(=O)c1cccc(N(CC(=O)Nc2ccc(F)cc2F)S(C)(=O)=O)c1
[4]
  EC50: 176 µM (active)

## CCC(C(=O)N1CCC(N2CCCCC2)CC1)n1nc(C)c2sc3ccccc3c2c1=O (configuration not stated)
Streptococcus
  EC50: > 150 µM (not active)
[5]
  EC50: > 150 µM (not active)
Streptokinase A
  EC50: > 150 µM (not active)

## Cc1ccc(C(=O)CSc2nc(C)cc(=O)[nH]2)cc1
Cytochrome P450 1A2
  AC50: 31.6 µM (inconclusive)
Cytochrome P450 2C9
  AC50: 0.0282 µM (inconclusive)
Cytochrome P450 2C19
  AC50: 39.8 µM (inconclusive)

## CC1(C)OC(C(O)(c2ccccc2)c2ccccc2)[C@@H](C(O)(c2ccccc2)c2ccccc2)O1 (some centres not stated)
Streptococcus
  EC50: > 150 µM (not active)
[5]
  EC50: 2.95 µM (active)
Streptokinase A
  EC50: 2.78 µM (active)

## CCN1C(=O)/C(=C\N2CCN(c3cccc(Cl)c3)CC2)SC1=S
[1]
  AC50: 1.77 µM (active)

## CCOC(=O)Nc1ccc2c(c1)OCO2
Cytochrome P450 2D6
  AC50: 35.5 µM (inconclusive)
Cytochrome P450 2C9
  AC50: 39.8 µM (inconclusive)

## COc1cccc(-c2ccc(C#N)c(OC(=O)c3c(Cl)cccc3Cl)n2)c1
[9]
  CC50: 28.1 µM (active)
[1]
  AC50: 3.52 µM (active)

## Cc1cc(C)c2c(NC(=O)C3CC3)nn(C)c2n1
[4]
  EC50: > 260 µM (inactive)

## CCOC(=O)C1CCN(c2c(NCc3ccc(C(=O)NCCC(C)C)cc3)c(=O)c2=O)CC1
Cytochrome P450 2D6
  AC50: 0.398 µM (inconclusive)
Cytochrome P450 2C9
  AC50: 7.94 µM (inconclusive)
Cytochrome P450 3A4
  AC50: 7.94 µM (inconclusive)

## Cc1ccc(/C=c2\s/c(=C(/C#N)C(=O)N3CCCC3)n(Cc3ccco3)c2=O)s1
[4]
  EC50: 9.99 µM (active)

## Cc1cc2c3c(c1)C1(C(=O)N3C(C)(C)CC2C)C(C#N)=C(N)Oc2cc(O)ccc21 (configuration not stated)
[7]
  EC50: 1.41 µM (active)
[8]
  EC50: > 60 µM (not active)
[4]
  EC50: 54.7 µM (active)

## COc1ccc(/C=N/N(c2ccccc2)c2ccccc2)cc1O
[1]
  AC50: 6.76 µM (active)
